In patent US10988533B2, “Anti-pre-BCR antagonists and methods” (STC.UNM, priority 2015, dated 2021):

How the values were obtained:
[1] = tested on: patient #280 BCP-ALL blasts; test: flow cytometry apoptosis assay (Annexin-V / 7-AAD), patient #280 cells; format: cell-based, human; details: patient #280 blasts, single agent, 24-hour culture (dasatinib 10 μM)
Description: Blockade of pre-BCR homotypic self-association can sensitize patient cells to vincristine. […] Blasts from patient #280 also were very sensitive to dasatinib as a single agent (80% 7-AAD/Annexin-V positive after 24-hour culture). Longer incubations were not feasible, since cells from this patient were 40% 7-AAD positive when incubated with no drug or in the presence of vincristine up to 5 ng/ml.
Leukemia cell apoptosis was measured based upon binding to Annexin-V-FITC (BioLegend, Inc., San Diego, Calif.) and loss of cell viability measured by 7-AAD labeling (BioLegend, Inc., San Diego, Calif.), according to manufacturer's procedures. For receptor-binding experiments, cells were incubated under saturating conditions for 1.5 hours on ice in PBS with anti-CD79b-APC antibody (BioLegend, Inc., San Diego, Calif.) or anti-VpreB-PE antibody (BioLegend, Inc., San Diego, Calif.). Flow results were calibrated using QUANTUM SIMPLY CELLULAR (Bangs Laboratories, Inc., Fishers, Ind.) beads with anti-mouse Fc antibody according to manufacturer's instruction. […] All flow cytometry data collection was conducted on the HYPERCYT platform (IntelliCyt Corp., Albuquerque, N. Mex.; Edwards et al., 2009, Methods Mol Biol 486:151-165) and analyzed with the FLOWJO Software Suite (FlowJo, LLC, Ashland, Oreg.).

pre-BCR on 697 cells [2] = target: T1, pre-BCR on 697 cells (Homo sapiens, UniProt P12018+P15814); test: fluorescence imaging of pre-BCR clustering by labeled galectin-1; format: cell-based; details: Alexa 555-conjugated galectin-1 10 μM, within five minutes
T1 construct: endogenous in cells; host or cells: 697 (BCP-ALL cell line)

pre-BCR on 697 cells [3] = target: T2, pre-BCR on 697 cells (Homo sapiens, UniProt P12018); test: Single Particle Tracking of pre-BCR diffusion on 697 cells; format: cell-based; details: Fab 1 μM, galectin-1 10 μM; for overall diffusion (mobility) of pre-BCR: relative to tonic signaling, inhibitors 1 μM
T2 construct: endogenous in cells; host or cells: 697 (BCP-ALL cell line)
T2 sequence (P12018 20-145): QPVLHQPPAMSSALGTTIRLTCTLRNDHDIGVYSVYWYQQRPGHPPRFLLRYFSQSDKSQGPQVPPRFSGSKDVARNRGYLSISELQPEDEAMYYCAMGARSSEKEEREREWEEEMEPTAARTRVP
Description: Data are reported as changed in ensemble diffusion coefficients (MSD) for pre-BCR plus and minus saturating levels of anti-VpreB1 Fabs (1 μM). In these experiments, Fabs were added to 697 cells for 15 minutes at 37° C. prior to performing Single Particle Tracking (SPT).
Suspension cultures of BCP-ALL cell lines (697, Nalm6) were grown in RPMI 1640 with phenol red (Sigma-Aldrich, St. Louis, Mo.), with 10% (v/v) HI FBS, 1% Penicillin/Streptomycin (Gibco, Gaithersburg, Md.), and L-Glutamine 2 mM. Patient samples were cultured in IMDM, GlutaMAX medium (Gibco, Gaithersburg, Md.) supplemented with 20% (v/v) HI FBS, 1% penicillin/streptomycin, 1× insulin, transferrin and selenium (Gibco, Gaithersburg, Md.), 1 mM sodium pyruvate (Gibco, Gaithersburg, Md.), and 55 μM 2-Mercaptoethanol (Gibco, Gaithersburg, Md.). Prior to experiments, cells were washed twice with Tyrode's solution (Sigma-Aldrich, St. Louis, Mo.). Unless otherwise stated, cells were pretreated for 10 minutes with Bay-61-3606 (Santa Cruz Biotechnology, Inc., Dallas, Tex.; 1 μM), dasatinib (Santa Cruz Biotechnology, Inc., Dallas, Tex.; 1 μM), tofacitinib (Selleck Chemicals LLC, Houston, Tex.; 1 μM), anti-VpreB Fab (1 μM), 3AC (Echelon Biosciences, Inc., Salt Lake City, Utah), and/or recombinant galectin-1 (PreproTech, Inc., Rocky Hill, N.J.; 10 μM), +/− lactose.
LAB-TEK imaging chambers (ThermoFisher Scientific, Waltham, Mass.) were coated with poly-1-lysine hydrobromide (Sigma-Aldrich, St. Louis, Mo.) at 1 mg/ml in sterile water for 20 minutes at room temperature, followed by three washes. BCP-ALL cells were serum-starved in RPMI 1640 without FBS for two hours prior to being added to coated wells and incubated for 15 minutes at 37° C. QD-Fab-CD79b or QD-Fab-IgM were added at 100 pM in Tyrodes's solution (Sigma-Aldrich, St. Louis, Mo.) with 0.1% (w/v) BSA and 20 mM glucose for 10-15 minutes at 37° C.
All corresponding GPU single particle tracking and track elongation, squared displacement, mean square displacement, correlated motion, fiducial data acquisition and image registration and three-state hidden Markov Model used in this study have been described in detail previously (Low-Nam et al, 2011, Nat Struct Mol Biol 18:1244-1249).

697 cells = test: flow cytometry apoptosis assay (Annexin-V / 7-AAD), 697 cells; format: cell-based, human; details: for apoptosis in cells treated with vincristine over a range of doses: inhibitor in combination with vincristine
Description: Since blocking pre-BCR pro-survival signaling may be advantageous for chemo-sensitization, one can compare apoptosis alone or in combination with a sub-lethal dose of a chemotherapeutic such as, for example, vincristine or daunorubicin.
Curves were fit using sigmoidal dose-response curve using MATLAB curve fitting toolbox (The MathWorks, Inc., Natick, Mass.).
Leukemia cell apoptosis was measured based upon binding to Annexin-V-FITC (BioLegend, Inc., San Diego, Calif.) and loss of cell viability measured by 7-AAD labeling (BioLegend, Inc., San Diego, Calif.), according to manufacturer's procedures. For receptor-binding experiments, cells were incubated under saturating conditions for 1.5 hours on ice in PBS with anti-CD79b-APC antibody (BioLegend, Inc., San Diego, Calif.) or anti-VpreB-PE antibody (BioLegend, Inc., San Diego, Calif.). […] (Bangs Laboratories, Inc., Fishers, Ind.) beads with anti-mouse Fc antibody according to manufacturer's instruction. Dissociation constants were estimated with nonlinear regression analysis under KD controlled conditions as described (Drake, A. W., and S. L. Klakamp, 2007, J Immunol Methods 318:147-152). All flow cytometry data collection was conducted on the […] platform (IntelliCyt Corp., Albuquerque, N. Mex.; Edwards et al., 2009, Methods Mol Biol 486:151-165) and analyzed with the FLOWJO Software Suite (FlowJo, LLC, Ashland, Oreg.).

[4] = tested on: BCL6 expression in 697 cells; test: Western blotting of BCL6 expression in 697 cells; format: cell-based, human; details: overnight (24 hours) treatment
Description: (§1) Results in FIG. 8 evaluate the ability of anti-VpreB Fabs, as well as inhibitors directed at pre-BCR downstream signaling partners Lyn, Syk and SHIP1 (INPP5D), to block tonic signaling from the pre-BCR.
(§2) After stated incubation +/− inhibitors or crosslinking agents, cells were washed with ice-cold PBS and held for 15 minutes on ice in Tris-based lysis buffer, with 1% NP-40 and protease and phosphatase inhibitors (ThermoFisher Scientific, Waltham, Mass.). For effects of inhibitors on BCL6 expression, treatments were carried out for 24 hours. Lysates were clarified by centrifugation at 14,000×g for 10 minutes at 4° C., then added to Laemmli's Reducing buffer. Proteins were separated on SDS-polyacrylamide and transferred to nitrocellulose membranes. After blocking with TBST (Sigma-Aldrich, St. Louis, Mo.) with 5% BSA (Sigma-Aldrich, St. Louis, Mo.), blots were probed with antibodies specific to pCD79a (Tyr 182) (Cell Signaling Technology, Inc., Danvers, Mass.), pSyk (Tyr348) (Novus Biologicals LLC, Littleton, Colo.), pSyk (Tyr 352) (Cell Signaling Technology, Inc., Danvers, Mass.) or BCL6 (Santa Cruz Biotechnology, Inc., Dallas, Tex.). Antibodies to β-Actin (Sigma-Aldrich, St. Louis, Mo.) were used as loading controls.

[5] = tested on: pre-BCR signaling in 697 cells; test: Western blotting of pre-BCR tonic signaling (phospho-CD79a, phospho-Syk) with pervanadate; format: cell-based, human; details: for accumulation of phospho-Syk (Syk phosphorylation): in the presence of pervanadate, 30-minute treatment
Description: as §1, §2
BCP-ALL cells were treated with pervanadate solution as previously described (Imbert et al., 1994, Biochem J297 (Pt 1):163-173; Smrz et al., 2008, J Biol Chem 283:10904-10918). Data in FIG. 8 are reported using a linear range normalization from 0 to 1.0, whereby tonic without pervanadate treatment response was set to 0 and tonic pervanadate treatment was set to 1.0: […]

[6] = tested on: BCL6 levels in patient #280 cells; test: Western blotting of BCL6 levels in patient #280 cells; format: cell-based, human; details: 24 hours
Description: FIG. 14. Data showing that pre-BCR signaling contributes to survival of some BCP-ALL blasts. Data are shown for patient #280. A) Increase in apoptosis (Annexin labeling) and loss of cell viability (7AAD labeling) after prolonged incubation with dasatinib (10 μM) alone or in combination with vincristine over doses of 0.1 ng/ml to 100 ng/ml. B) Increase in apoptosis after 24-hour incubation of #280 patient cells with α-VpreB Fab (5 μM) alone or in combination with low dose vincristine (10 ng/ml).
After stated incubation +/− inhibitors or crosslinking agents, cells were washed with ice-cold PBS and held for 15 minutes on ice in Tris-based lysis buffer, with 1% NP-40 and protease and phosphatase inhibitors (ThermoFisher Scientific, Waltham, Mass.). For effects of inhibitors on BCL6 expression, treatments were carried out for 24 hours. Lysates were clarified by centrifugation at 14,000×g for 10 minutes at 4° C., then added to Laemmli's Reducing buffer. Proteins were separated on SDS-polyacrylamide and transferred to nitrocellulose membranes. […]

T1 sequence (P15814 38-213, one chain of several): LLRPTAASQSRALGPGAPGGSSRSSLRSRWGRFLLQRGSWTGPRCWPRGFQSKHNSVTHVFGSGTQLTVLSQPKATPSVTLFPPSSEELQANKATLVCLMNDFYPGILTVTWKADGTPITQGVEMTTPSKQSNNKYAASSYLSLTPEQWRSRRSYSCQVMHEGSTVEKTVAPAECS

Compound | overall diffusion (mobility) of pre-BCR (pre-BCR on 697 cells [3]) | apoptosis in cells treated with vincristine over a range of doses (697 cells) | BCL6 expression [4] | accumulation of phospho-Syk (Syk phosphorylation) [5] | also measured
Cc1nc(Nc2ncc(C(=O)Nc3c(C)cccc3Cl)s2)cc(N2CCN(CCO)CC2)n1 [dasatinib] | – | – | – | – | 7-AAD/Annexin-V positive [1]: 80%
galectin-1: recombinant human galectin-1, crosslinks pre-BCR via surrogate light chain | far less mobile | – | – | – | clustering of the pre-BCR (pre-BCR on 697 cells [2]): marked clustering of the pre-BCR; immobile fraction of pre-BCR (D<0.05 μm^2/sec) (pre-BCR on 697 cells [3]): A large fraction of pre-BCR become essentially immobile
C[C@@H]1CCN(C(=O)CC#N)C[C@@H]1N(C)c1ncnc2[nH]ccc12 [tofacitinib] | not Jak (tofacitinib) results in a global increase | potentiate apoptosis | elevated levels | did not alter | –
CC(C)CCC[C@@H](C)[C@H]1CC[C@H]2[C@@H]3CC[C@H]4C[C@H](N)CC[C@]4(C)[C@H]3CC[C@]12C [3AC, 3-a-aminocholestane] | – | potentiate apoptosis | completely repressed | slightly elevated | BCL6 levels [6]: marked decline
CC[C@]1(O)C[C@H]2CN(CCc3c([nH]c4ccccc34)[C@@](C(=O)OC)(c3cc4c(cc3OC)N(C=O)[C@H]3[C@@](O)(C(=O)OC)[C@H](OC(C)=O)[C@]5(CC)C=CCN6CC[C@]43[C@@H]65)C2)C1 [vincristine] | – | – | – | – | apoptotic cells (697 cells; vincristine 10 ng/ml, with or without VpreB Fabs (5 μM)): 69.9%
COc1ccc(-c2cc3nccn3c(Nc3ncccc3C(N)=O)n2)cc1OC [Bay-61-3606] | overall increased mobility | potentiate apoptosis | – | – | diminished accumulation of Syk PY352 ([5]; pervanadate-treated): approximately 20%
